Experimental data taken from US20260085058A1, “DEGRADERS OF SON OF SEVENLESS HOMOLOG 1” (H. LEE MOFFITT CANCER CENTER AND RESEARCH INSTITUTE, INC., priority 2022, published 2026).

Molecular target: T1, SOS1 (Homo sapiens, UniProt Q07889)
T1 sequence (Q07889 1-1333): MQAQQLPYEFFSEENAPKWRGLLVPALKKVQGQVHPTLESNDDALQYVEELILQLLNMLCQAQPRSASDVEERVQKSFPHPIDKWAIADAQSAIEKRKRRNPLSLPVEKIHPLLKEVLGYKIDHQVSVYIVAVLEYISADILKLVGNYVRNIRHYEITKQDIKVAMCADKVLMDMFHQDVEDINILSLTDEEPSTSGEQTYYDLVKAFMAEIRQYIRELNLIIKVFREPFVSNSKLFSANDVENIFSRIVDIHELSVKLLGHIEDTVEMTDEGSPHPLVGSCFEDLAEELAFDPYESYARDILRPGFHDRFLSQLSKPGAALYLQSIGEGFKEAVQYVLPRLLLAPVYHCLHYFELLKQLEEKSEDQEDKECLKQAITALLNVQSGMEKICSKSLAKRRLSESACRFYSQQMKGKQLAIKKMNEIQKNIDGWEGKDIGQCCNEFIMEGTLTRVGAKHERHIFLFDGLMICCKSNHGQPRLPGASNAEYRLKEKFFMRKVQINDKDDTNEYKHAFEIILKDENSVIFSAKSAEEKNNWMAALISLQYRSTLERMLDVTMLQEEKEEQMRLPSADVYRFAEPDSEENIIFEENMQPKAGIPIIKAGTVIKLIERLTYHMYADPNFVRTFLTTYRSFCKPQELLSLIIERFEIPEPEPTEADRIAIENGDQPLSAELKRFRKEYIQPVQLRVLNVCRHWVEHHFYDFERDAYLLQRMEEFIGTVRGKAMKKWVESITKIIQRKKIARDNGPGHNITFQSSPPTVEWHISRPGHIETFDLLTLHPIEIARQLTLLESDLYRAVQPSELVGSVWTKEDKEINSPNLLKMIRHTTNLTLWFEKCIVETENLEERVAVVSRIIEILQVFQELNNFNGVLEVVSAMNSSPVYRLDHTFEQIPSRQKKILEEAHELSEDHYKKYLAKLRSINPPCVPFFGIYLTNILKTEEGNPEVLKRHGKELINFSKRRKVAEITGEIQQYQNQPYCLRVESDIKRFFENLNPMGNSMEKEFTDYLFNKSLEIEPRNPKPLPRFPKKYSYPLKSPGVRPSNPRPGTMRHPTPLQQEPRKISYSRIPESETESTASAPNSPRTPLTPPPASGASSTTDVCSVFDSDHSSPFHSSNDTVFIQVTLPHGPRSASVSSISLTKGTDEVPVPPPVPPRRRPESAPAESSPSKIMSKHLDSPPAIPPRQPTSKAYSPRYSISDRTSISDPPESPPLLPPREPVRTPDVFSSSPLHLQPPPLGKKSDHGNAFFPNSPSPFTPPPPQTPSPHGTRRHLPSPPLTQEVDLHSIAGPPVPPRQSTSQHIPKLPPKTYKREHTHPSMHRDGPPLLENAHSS
Assay: SOS1 degradation by immunoblot in colorectal cancer cell lines
Assay type: cell-based
Design: endogenous in cells; host or cells: SW620, HCT116, C2BB, SW1417
Details: SW620 cells, 1 μM, different time points
Experimental: SW620, HCT116, C2BB, and SW1417 were purchased from the American Type Culture Collection. […] They were incubated under a 5% (v/v) CO2 atmosphere at 37° C.
Cells were plated in a 100 mm dish for incubation overnight before harvest for immunoblot. For drug treatment, cell confluency was checked prior to proceeding with the treatment. […] Approximately 40 μg protein samples were loaded into each well and separated by SDS-PAGE gel. After protein transfer onto nitrocellulose membranes, 5% skim milk in TBST was used to block the membranes for 1 hour at room temperature prior to incubation with primary antibodies overnight at 4° C. At the completion, a horseradish peroxidase-conjugated secondary antibody was applied at room temperature for 1 hour. The bands were visualized using Western Lightning Plus-ECL (PerkinElmer).

- Time-dependent SOS1 degradation: not observed
Structure (SMILES): COc1cc2c(N[C@H](C)c3cc(N)cc(C(F)(F)F)c3)nc(C)nc2cc1OCc1cccc2c1C(=O)N(C1CCC(=O)NC1=O)C2=O (stereo partly drawn) [P2, 4-(((4-(((R)-1-(3-amino-S-(trifluoromethyl)phenyl)ethyl)amino)-6-methoxy-2-methylquinazolin-7-yl)oxy)methyl)-2-(2,6-dioxopiperidin-3-yl)isoindoline-1,3-dione]
